One data set has as its system HaCaT cells. Kind of data set: DCF-DA assay (intracellular ROS after H2O2). The following applies: Homo sapiens, 100 μΜ, H2O2 treatment, 24 h, read-out: DCFDA Assay, % (100 μΜ). The data set is classed as cell-based, human. The source says:
In the setting of evaluating bioactive compounds in terms of antioxidant capacity in various cell lines, DCF-DA is the most widely used assay for the detection of intracellular H2O2 and oxidative stress. DCF-DA is cell-permeable and is hydrolyzed intracellularly to the DCFH carboxylate anion, which is retained in the cell.
DCFDA is a fluorescent dye that measures the activity of hydroxyl radicals, peroxyl radicals, and other reactive oxygen species (ROS) within the cell. The DCFDA analysis protocol is based on the diffusion of DCFDA into the cell. It is then deacetylated from cellular esterases to a non-fluorescent compound, which is later oxidized by ROS to 2’,7’ -dichlorofluoroscein (DCF). The produced compound (DCF) is fluorescent and is detected by fluorescence spectroscopy at 485/535 nm (excitation/emission).
For the experimental procedure a standard solution of DCF-DA (20mM) in DMSO was prepared which was stored in the dark (−20 °C) until use. In a 96-well plate, cells were cultured to a density of 3 × 10^4 cells/well.
The cells remained in the incubator (37 °C, 5% CO2) for 24 h, after which an appropriate amount of H2O2 (2 mM) was added and the dish was returned for incubation for the next 2 h. This was followed by the addition of the test substances (100μM) and incubation for 24 h. At the end of the treatment time, all wells were washed with PBS, and DCF-DA solution (working concentration: 10 μM) (in 200 μL of nutrient) was added and incubated for 40 min.
After incubation, the medium with the DCF-DA was removed and replaced with FBS-free DMEM. The measurement of the […] was made immediately after that in a plate reader at 495/530 nm (excitation/emission).
All samples were tested in triplicates, against a control (without effects), blank (without cells), and positive control (standard 100 μM Ascorbic acid solution was used).
The percentage of antioxidant capacity (%) was calculated according to the following Equation (6) evaluating the presence of ROS [42]:(6) % AI=( OD Sample 530 nm−Blank)−(OD Control 530 nm−Blank)/(OD Control 530 nm−Blank) × 100

A short description of data set [1]: ABTS radical scavenging assay. The settings on record: 6 min. How it is done: The ABTS radical cation scavenging assay is a decolorization assay frequently used as an antioxidant activity estimation protocol. […] The absorbance is measured at 734 nm and the antioxidant capacity is compared to a standard antioxidant solution, such as ascorbic acid.
For the evaluation of antioxidant activity, the scavenging capacities of all samples were measured via the ABTS assay, as previously described by Kontogiorgis et al. with some modifications. Briefly, an ethanolic standard ABTS solution (7 mM) was prepared by the addition of ABTS salt and potassium persulfate. […] Each sample was diluted in DMSO and tested in triplicate. The tested mixture contained 10–20 µL of sample and 990–980 µL of the ABTS solution, for a total volume of 1 ml. Blank samples contained equal amounts of DMSO instead of the coumarin analogues, and ascorbic acid was used as a reference sample for the final evaluation of the ABTS scavenging capacity. All mixtures were stored at room temperature to allow decolorization and measured after 6 min. The percentage reduction of the ABTS radical was evaluated according to the following Equation (3):(3) % Reduction=Control OD (mean)−Sample OD (mean)/Control OD (mean)×100

Data set [2] can be described thus: Inhibition of AAPH induced linoleic acid oxidation (lipid peroxidation). The following applies: 100 μΜ. The source says:
AAPH induced linoleic acid oxidation has been developed as a quick and reliable antioxidant activity assay. It is based on the inhibition of linoleic acid oxidation, initiated by the thermal free radical producer 2,2′-azobis(2-amidinopropane) dihydrochloride (AAPH), providing a measure of how efficiently antioxidants protect against lipid oxidation in vitro. Oxidation of exogenous linoleic acid by AAPH is followed by UV spectrophotometry at 234 nm in a highly diluted sample [38].
For the reference sample in a UV cuvette, 10 μL of the test sample (100 μM diluted in DMSO), 10 μL linoleic acid (LA) (16 mM), and buffer solution (pH 7.4) were added to a final volume of 1ml. For the measurement sample, in a UV cuvette, 10 μL of test sample, 50 μL AAPH (40 mM), 10 μL LA, and buffer solution were added to a final volume of 1 mL. Standard and blank samples were prepared in the same way using DMSO (solvent) instead of the tested coumarin analogues. The absorbance was measured after 2 min at 37 °C at 234 nm. Results were obtained via the following Equation (5):(5) %Inhibition=(Standard−Blank)−(Reference Sample−Measurement Sample)/(Standard−Blank) × 100

Data set [3] can be described thus: Hydroxyl (HO•) free radical scavenging assay (competition with DMSO). The source says: The hydroxyl (HO^•) free radical is considered as the most toxic and reactive radical among the ROS, leading to cellular or protein damage, membrane destruction, and even to cellular death when encountered in excess concentration. In this context, the evaluation of the hydroxyl radical scavenging activity of the coumarin analogues was essential. Hydroxyl radicals are mainly produced by the Haber–Weiss reaction in the presence of iron or copper ions. In this protocol, iron-EDTA solution, which catalyzes the autooxidation of ascorbic acid, was used as the hydroxyl radical generation system. In general, the hydroxyl radicals formed oxidize the DMSO to form formaldehyde. The reaction involves the initial interaction of DMSO with the hydroxyl radicals to give methyl radicals, with the final product being formaldehyde, which is determined by Nash method. The intensity of the yellow solution formed was measured at 412 nm against a reagent blank.
For the evaluation of hydroxyl radical scavenging ability, the protocol described by Kontogiorgis et al. was used. In short, each sample was tested in quadruplicate (A, B, C, D). For A and B, 10 μL of coumarin analogs diluted in DMSO (100 mM) were added; for C and D were the respective blanks. Standards (containing DMSO solution) and blanks were all prepared in a similar manner; to the latter an equal amount (10 µL) of solvent was added instead of the tested analogues. According to the protocol described by Klein et al., standard solutions of EDTA, FeCl3, ascorbic acid, and buffer solution (pH 7.4) were also added to each of the tested mixtures. All mixtures were incubated at 37 °C for 30 min, and then 1 mL of Nash solution and […] of CCl3COOH solution were added. After a 10min incubation at 60 °C to allow the formation of the yellow mixture, the absorbance was measured at […].
The results were calculated as performance percentages in relation to the respective standards and blanks according to the following Equation (4):(4) % Scavenging ability= Mean OD(A+B)−Mean OD(C+D)/Mean OD(A+B)

A further data set has as its system A375 cells. Kind of data set: MTT cytotoxicity assay, A375. The data set is classed as cell-based, human. The settings on record: Homo sapiens, A-375, 24 h, A375, 100 μΜ, read-out: Cell Toxicity A375 % (100 μΜ). How it is done: (§1) Furthermore, the coumarin compounds synthesized in this study were also evaluated for their cytotoxicity against A549 (adenocarcinomic human alveolar basal epithelial cells) and A375 (human melanoma) cell lines.
(§2) This protocol was used for the evaluation of cell viability and all the cell lines. It must be noted that this assay describes the count of cells that remain alive after the treatment. For the experimental procedure a standard solution of MTT 1mg/mL in PBS was prepared which after filtration ([…] filter (Millipore, Carrigtwohill, Ireland)) was stored in the dark (4–8 °C) until use. In a 96-well plate, HaCaT, A549 and A375 cells were seeded in a number of 30 × 10^4 cells/well for each evaluation series respectively. The cells were incubated (37 °C, 5% CO2) for 24 h, followed by the addition of the tested analogues (100 μM, diluted in DMEM) and another 24-h incubation. Next, appropriate amount of MTT was added in the tested wells and the plate returned to the incubator for the next 4 h for the formation of the formazan crystals. The formazan crystals were then redissolved by adding DMSO (100 μL) and stirring lightly for 40 min, after which the absorbance was measured in a plate reader at 540 nm with a reference absorbance of 720 nm.
(§3) All samples were tested in triplicate, against a control (only cells), blank (no cells), and positive control (100 μM standard silibinin solution was used as a “cell-killing” standard).
(In general: Tetrazolium assays rely on reduction of a dye to a coloured formazan, in cell work by metabolically active cells.)

The nature of data set [4]: MTT cell viability assay, HaCaT. In kind it is cell-based, human. The following applies: human, HaCaT cells, 100 μΜ, 24 h.
Source text: The MTT assay (3- [4,5-dimethylthiazol-2-yl] -2,5 diphenyl tetrazole) is based on the conversion of MTT to formazan crystals by living cells, which determines mitochondrial activity. Since for most cell populations total mitochondrial activity is related to the number of viable cells, this assay is widely used to measure the in vitro cytotoxic effects of drugs on various cell lines or primary cells. The principle of the MTT assay is that for most viable cells the mitochondrial activity is stable, and therefore, an increase or decrease in the number of viable cells is linearly related to mitochondrial activity. The mitochondrial activity of the cells is reflected by the conversion of the MTT tetrazole salt to formazan crystals (bright purple), which can be solubilized (in this protocol with DMSO) for homogeneous measurement. Thus, any increase or decrease in the number of viable cells can be detected by measuring the formazan concentration reflected in the optical density (OD) measurement at 540 nm with a reference absorption of 720 nm.
All the compounds were tested for their cytotoxic activity against blank and control samples in the human epidermal keratinocyte line (HaCaT), at the concentration of 100 μΜ, and the results are presented in Table 4.
as §2, §3

The subject of a further data set is A549 cells. Kind of data set: MTT cytotoxicity assay, A549. In kind it is cell-based, human. The following applies: Homo sapiens; A549, 100 μΜ, 24 h; read-out: Cell Toxicity A549 % (100 μΜ). On the procedure:
as §1, §2, §3

SMILES strings stand for the structures.

As usually defined, the viability is a read-out of living cells in per cent, often relative to untreated cells. A high value points to less harm to the cells.

`O=C1O[C@H]([C@@H](O)CO)C(O)=C1O` [Ascorbic acid, reference compound]: in the data set on HaCaT cells, the inhibition at 100 µM was 87%. Further, in data set [1], the “ABTS^•+ % (100 μΜ)” value is listed as 99.1%.
Turning to `Cc1c(C)c2c(c(C)c1O)CCC(C)(C(=O)O)O2` (centres unmarked) [Trolox, reference compound], the “AAPH % inhibition (100 μΜ)” value in data set [2] was found to be 92%. In addition, the “ABTS^•+ % (100 μΜ)” value in data set [1] is 92.0%. The “HO^• % (100 μΜ) scavenging” value in data set [3] was 85.0%.
For the compound `COc1cc(C2Oc3cc([C@H]4Oc5cc(O)cc(O)c5C(=O)[C@@H]4O)ccc3OC2CO)ccc1O` (some centres unmarked) [Silibinin, reference compound], the cytotoxicity at 100 µM in the data set with A375 cells is 84.4%; with A549 cells, 78.3%. The compound further registered a viability at 24 h, 100 μM in data set [4] of 35.7%.
